These results are taken from patent US11548888B2, “KRas G12C inhibitors” (Mirati Therapeutics, Inc., priority 2019, dated 2023).

Molecules are shown by their SMILES.

The target in the test is T1, KRas G12C (Homo sapiens, UniProt P01116, G12C).
T1 construct: NCI-H358 cells (ATCC CRL-5807) express KRas G12C
T1 sequence (P01116 1-188 isoform P01116-2 G12C): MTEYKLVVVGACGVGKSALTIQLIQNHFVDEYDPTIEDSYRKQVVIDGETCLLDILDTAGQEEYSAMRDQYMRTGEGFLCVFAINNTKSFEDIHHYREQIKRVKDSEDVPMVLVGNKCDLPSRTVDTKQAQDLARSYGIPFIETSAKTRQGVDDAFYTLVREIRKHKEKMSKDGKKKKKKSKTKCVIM
The test can be described thus: Inhibition of KRas G12C-dependent cell growth: Phospho-ERK in NCI-H358 cells. The test is classed as cell-based. The settings on record: NCI-H358 cells expressing KRas G12C; Phospho-ERK (Thr202/Tyr204) normalized to GAPDH; 3 hours compound; 4 parameter fit. Put shortly: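 Phospho-ERK read-out in KRas G12C-expressing NCI-H358 cells after 3 h compound treatment (final DMSO 0.5%), by in-cell infrared immunodetection. Signal normalized to GAPDH and to DMSO controls. 4-parameter curve fit gave IC50.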
Regarding `C#Cc1cccc2cc(O)cc(-c3ncc4c(N5C[C@@H]6[C@H]5CCN6C(=O)C=C)nc(OC[C@@H]5CCCN5C)nc4c3F)c12` [Example 292, 1-((1R,5R)-6-(7-(8-ethynyl-3-hydroxynaphthalen-1-yl)-8-fluoro-2-(((S)-1-methylpyrrolidin-2-yl)methoxy)pyrido[4,3-d]pyrimidin-4-yl)-2,6-diazabicyclo[3.2.0]heptan-2-yl)prop-2-en-1-one], the IC50 – broadly, the concentration at which inhibition is half-maximal – stood at 20 nM. In other words, the double-digit nanomolar range.
`C#Cc1cccc2cc(O)cc(-c3ncc4c(N5C[C@@H]6[C@H]5CCN6C(=O)C=C)nc(OCC56CCCN5CCC6)nc4c3F)c12` [Example 293, 1-((1R, 5R)-6-(7-(8-ethynyl-3-hydroxynaphthalen-1-yl)-8-fluoro-2-((tetrahydro-1H-pyrrolizin-7a(5H)-yl)methoxy)pyrido[4,3-d]pyrimidin-4-yl)-2,6-diazabicyclo[3.2.0]heptan-2-yl)prop-2-en-1-one]: the half-maximal inhibitory concentration (IC50) was found to be 65 nM.
As for `C#Cc1cccc2cc(Cl)cc(-c3ncc4c(N5C[C@@H]6[C@H]5CCN6C(=O)C=C)ncnc4c3F)c12` [Example 294, 1-((1R,5R)-6-(7-(3-chloro-8-ethynylnaphthalen-1-yl)-8-fluoropyrido[4,3-d]pyrimidin-4-yl)-2,6-diazabicyclo[3.2.0]heptan-2-yl)prop-2-en-1-one], the figure is 2150 nM; as for `C#Cc1cccc2cncc(-c3ncc4c(N5C[C@@H]6[C@H]5CCN6C(=O)C=C)ncnc4c3F)c12` [Example 295], 418 nM.
The same measure for `C#Cc1c(F)ccc2cccc(-c3ncc4c(N5C[C@@H]6[C@H]5CCN6C(=O)C=C)nc(N5CC(N(C)C)C5)nc4c3F)c12` [Example 297]: 4 nM; for `C#Cc1cccc2cccc(-c3ncc4c(N5C[C@@H]6[C@H]5CCN6C(=O)C=C)nc(N5CC(N(C)C)C5)nc4c3F)c12` [Example 298]: 24 nM.
Compound `C#Cc1c(F)ccc2cccc(-c3ncc4c(N5C[C@@H]6[C@H]5CCN6C(=O)C(=C)F)ncnc4c3F)c12` [Example 299, 1-((1R,5R)-6-(7-(8-ethynyl-7-fluoronaphthalen-1-yl)-8-fluoropyrido[4,3-d]pyrimidin-4-yl)-2,6-diazabicyclo[3.2.0]heptan-2-yl)-2-fluoroprop-2-en-1-one] returned an IC50 of 1330 nM.
Compound `C#Cc1c(F)ccc2cccc(-c3ncc4c(N5C[C@@H]6[C@H]5CCN6C(=O)/C=C/C(F)F)ncnc4c3F)c12` [Example 300, (E)-1-((1R,5R)-6-(7-(8-ethynyl-7-fluoronaphthalen-1-yl)-8-fluoropyrido[4,3-d]pyrimidin-4-yl)-2,6-diazabicyclo[3.2.0]heptan-2-yl)-4,4-difluorobut-2-en-1-one] displayed an IC50 of 235 nM.
In turn, `C=CC(=O)N1CCN(c2ncnc3c(F)c(-c4c[n+]([O-])cc5ccccc45)ncc23)CC1` [Example 301, 4-(4-(4-acryloylpiperazin-1-yl)-8-fluoropyrido[4,3-d]pyrimidin-7-yl)isoquinoline 2-oxide] registered an IC50 of 10000 nM.
The same measure for `C=CC(=O)N1CCN(c2ncnc3c(F)c(-c4cccc5cc(C)ccc45)ncc23)CC1` [Example 302, 1-(4-(8-fluoro-7-(6-methylnaphthalen-1-yl)pyrido[4,3-d]pyrimidin-4-yl)piperazin-1-yl)prop-2-en-1-one]: 10000 nM; for `C=CC(=O)N1CC[C@@H]2[C@H]1CN2c1ncnc2c(F)c(-c3cccc4cccc(CC)c34)ncc12` [Example 303, 1-((1R, 5R)-6-(7-(8-ethylnaphthalen-1-yl)-8-fluoropyrido[4,3-d]pyrimidin-4-yl)-2,6-diazabicyclo[3.2.0]heptan-2-yl)prop-2-en-1-one]: 714 nM; for `C=CC(=O)N1CC[C@@H]2[C@H]1CN2c1ncnc2c(F)c(-c3cccc4ccc(F)c(CC)c34)ncc12` [Example 304, 1-((1R,5R)-6-(7-(8-ethyl-7-fluoronaphthalen-1-yl)-8-fluoropyrido[4,3-d]pyrimidin-4-yl)-2,6-diazabicyclo[3.2.0]heptan-2-yl)prop-2-en-1-one]: 456 nM.
